Laboratory results published in ChEMBL document CHEMBL1152698, “A novel class of allosteric modulators of AMPA/Kainate receptors” (Bioorg Med Chem Lett, 2009).

Assays:
Rattus norvegicus = species on record: Rattus norvegicus; experiment: Potentiation of AMPA receptor mediated KA-induced current in Sprague-Dawley rat primary cerebellar granule neurons at 200 uM
[1] = Potentiation of AMPA receptor mediated KA-induced current in Sprague-Dawley rat primary cerebellar granule neurons
[2] = Extracellular drug level in Sprague-Dawley rat hippocampus at 100 mg/kg, po after 6 hrs; assay type: ADME, organism-based; parameters: dose 100 mg/kg, route oral; conditions: hippocampus extracellular fluid, read-out: Drug uptake
[3] = Extracellular drug level in Sprague-Dawley rat hippocampus at 100 mg/kg, po after 4 hrs; assay type: ADME, organism-based; parameters: dose 100 mg/kg, route oral; conditions: hippocampus extracellular fluid, read-out: Drug uptake

SMILES | Activity (Rattus norvegicus) [%] | further results
CCNc1ccc(Cl)cc1S(N)(=O)=O | 91 | 
COc1ccc(S(N)(=O)=O)c(N)c1 | -5 | 
Nc1ccccc1S(N)(=O)=O | -5 | 
CNc1ccc(Cl)cc1S(N)(=O)=O | 69 | 
CCCNc1ccc(Cl)cc1S(N)(=O)=O | 80 | EC50 [1]: 134 µM
Nc1ccc([N+](=O)[O-])cc1S(N)(=O)=O | -8 | 
Cc1cccc(S(N)(=O)=O)c1N | 7 | 
Nc1cc(Cl)c(Cl)cc1S(N)(=O)=O | 35 | 
Nc1cc(Cl)ccc1S(N)(=O)=O | 8 | 
CC(C)Nc1ccc(Cl)cc1S(N)(=O)=O | 32 | 
CNS(=O)(=O)c1cc(Cl)ccc1N | 5 | 
CCCNS(=O)(=O)c1cc(Cl)ccc1N | 4 | 
CC1Nc2ccc(Cl)cc2S(=O)(=O)N1 (racemic) | 80 | 
Nc1cc(Cl)c(S(N)(=O)=O)cc1S(N)(=O)=O | -6 | 
CCNS(=O)(=O)c1cc(Cl)ccc1N | 12 | 
Nc1ccc(Cl)cc1S(N)(=O)=O | 23 | EC50 [1]: 284 µM; concentration at 6 h [2]: 8000 ng/mL; concentration at 4 h [3]: 12000 ng/mL
